According to patent US11921116B2, “Enigma and CDH18 as companion diagnostics for CDK4 inhibitors” (Memorial Sloan Kettering Cancer Center, priority 2016, dated 2024):
Entries after “also recorded” stand apart in the source; their conditions may differ.

How the values were obtained:
Type in all cases: cell-based
[1] = tested on: MDM2 turnover in LS8107 cells; assay: Turnover (degradation) of MDM2 in LS8107 cells after CDK4 inhibition; conditions: LS8107 cells with knockdown of Enigma, addition of PD0332991
Experimental: To determine if Enigma affects MDM2 protein levels post-translationally, the turnover of MDM2 was analyzed. […] To determine whether HAUSP and Enigma are the important regulators of MDM2 protein levels in response to treatment with a CDK4 inhibitor, concomitant knockdown of HAUSP and Enigma was performed.

[2] = tested on: non-responder cell line LS8107; assay: Senescence of LS8107 cells after CDK4 inhibition (SA-β-gal positive cells, ATRX foci)
[3] = tested on: MDM2 protein levels in LS8107 cells; assay: MDM2 protein levels in LS8107 cells after CDK4 inhibition
Text: The short hairpins used are as follows: TRCN0000161061: […] (SEQ ID NO: 4); and TRCN0000166638 (“EN638”): […] (SEQ ID NO: 5).

[4] = LS8107 cells with Enigma knocked down (shRNA), treated with PD0332991
[5] = non-responder LS8107 cells, PD0332991 alone (no knockdown)

SMILES: CC(=O)c1c(C)c2cnc(Nc3ccc(N4CCNCC4)cn3)nc2n(C2CCCC2)c1=O [PD0332991]
- turnover of MDM2 [1]: increased the turnover of MDM2
- senescence [2, 4]: the cells entered senescence
- senescence as determined by the number of SA-β-gal positive cells [2, 5]: do not undergo senescence; also recorded: insufficient to induce senescence
- MDM2 protein levels [3, 4]: reduction in MDM2 protein levels
- MDM2 protein levels [3, 5]: do not reduce their MDM2 protein levels
